Our source for the T/C values is PubChem BioAssay AID192 (DTP/NCI, 2004).

Where “and” joins values, the source holds several entries; their conditions need not be identical. Identical values can stand only once. Toxic doses and inconclusive results are not listed.

In the experiment the test system is BDF1 mice, B16 melanoma ip, median survival T/C. The experiment is described as follows: NCI In Vivo Anticancer Drug Screen. Data for tumor model B16 Melanoma (intraperitoneal) in B6D2F1 (BDF1) mice. The settings on record: endpoint: median survival time, higher = longer survival. In outline: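 Antitumor activity is assessed in mice bearing a transplanted tumor, with survival or tumor size compared against vehicle-dosed controls and expressed as T/C.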

As to `N[C@@H](Cc1ccc(N(CCCl)CCCl)cc1)C(=O)O`, the T/C is 97 % of control (dose: 0.06 mg/kg/injection, schedule: Q01DX009 (ip), vehicle: saline); 102 % of control (dose: 0.12 mg/kg/injection, schedule: Q01DX009 (ip), vehicle: saline); 104 % of control (dose: 0.25 mg/kg/injection, schedule: Q01DX009 (ip), vehicle: saline); 95 % of control (dose: 0.5 mg/kg/injection, schedule: Q01DX009 (ip), vehicle: carboxymethylcellulose (CMC)); 123 % of control (dose: 0.5 mg/kg/injection, schedule: Q01DX009 (ip), vehicle: water); 151 % of control (dose: 0.75 mg/kg/injection, schedule: Q01DX009 (ip), vehicle: Klucel (hydroxypropylcellulose) (HPC)). The T/C reads like this: (dose: 0.75 mg/kg/injection, schedule: Q01DX009 (ip), vehicle: saline) 157 % of control; (dose: 1.0 mg/kg/injection, schedule: Q01DX009 (ip), vehicle: carboxymethylcellulose (CMC)) 88 % of control; (dose: 1.0 mg/kg/injection, schedule: Q01DX009 (ip), vehicle: saline with Tween-80) 180 % of control; (dose: 1.0 mg/kg/injection, schedule: Q01DX009 (ip), vehicle: water) 176 % of control; (dose: 1.2 mg/kg/injection, schedule: Q01DX009 (ip), vehicle: saline) 167 % of control; (dose: 1.25 mg/kg/injection, schedule: Q01DX001 (ip), vehicle: water) 123 % of control. Besides, the T/C runs as follows: (dose: 1.5 mg/kg/injection, schedule: Q01DX009 (ip), vehicle: Klucel (hydroxypropylcellulose) (HPC)) 188 % of control; (dose: 1.5 mg/kg/injection, schedule: Q01DX009 (ip), vehicle: carboxymethylcellulose (CMC)) 180 % of control; (dose: 1.5 mg/kg/injection, schedule: Q01DX009 (ip), vehicle: saline) 166 % of control and 197 % of control; (dose: 2.0 mg/kg/injection, schedule: Q01DX009 (ip), vehicle: carboxymethylcellulose (CMC)) 95 % of control; (dose: 2.0 mg/kg/injection, schedule: Q01DX009 (ip), vehicle: saline with Tween-80) 254 % of control; (dose: 2.0 mg/kg/injection, schedule: Q01DX009 (ip), vehicle: water) 188 % of control. Further, the T/C runs as follows: (dose: 2.5 mg/kg/injection, schedule: Q01DX001 (ip), vehicle: Klucel (hydroxypropylcellulose) (HPC)) 164 % of control; (dose: 3.0 mg/kg/injection, schedule: Q01DX009 (ip), vehicle: Klucel (hydroxypropylcellulose) (HPC)) 198 % of control; (dose: 3.0 mg/kg/injection, schedule: Q01DX009 (ip), vehicle: saline) 171 % of control and 262 % of control; (dose: 3.3 mg/kg/injection, schedule: Q01DX009 (ip), vehicle: saline) 218 % of control; (dose: 4.0 mg/kg/injection, schedule: Q01DX009 (ip), vehicle: carboxymethylcellulose (CMC)) 94 % of control; (dose: 4.0 mg/kg/injection, schedule: Q01DX009 (ip), vehicle: saline with Tween-80) 200 % of control. The T/C is 161 % of control (dose: 4.0 mg/kg/injection, schedule: Q01DX009 (ip), vehicle: water); 194 % of control (dose: 4.0 mg/kg/injection, schedule: Q04DX003 (ip), vehicle: saline); 222 % of control (dose: 5.0 mg/kg/injection, schedule: Q01DX001 (ip), vehicle: Klucel (hydroxypropylcellulose) (HPC)); 156 % of control (dose: 5.0 mg/kg/injection, schedule: Q01DX005 (ip), vehicle: saline); 106 % of control and 117 % of control (dose: 6.0 mg/kg/injection, schedule: Q01DX009 (ip), vehicle: carboxymethylcellulose (CMC)); 118 % of control (dose: 6.0 mg/kg/injection, schedule: Q01DX009 (ip), vehicle: saline). In addition, the T/C by setting is: (dose: 6.0 mg/kg/injection, schedule: Q04DX003 (ip), vehicle: Klucel (hydroxypropylcellulose) (HPC)) 179 % of control; (dose: 8.0 mg/kg/injection, schedule: Q04DX003 (ip), vehicle: saline) 231 % of control; (dose: 10.0 mg/kg/injection, schedule: Q01DX001 (ip), vehicle: Klucel (hydroxypropylcellulose) (HPC)) 242 % of control; (dose: 10.0 mg/kg/injection, schedule: Q01DX001 (ip), vehicle: water) 191 % of control; (dose: 10.0 mg/kg/injection, schedule: Q01DX005 (ip), vehicle: saline) 194 % of control; (dose: 12.0 mg/kg/injection, schedule: Q04DX003 (ip), vehicle: Klucel (hydroxypropylcellulose) (HPC)) 169 % of control. Besides, the T/C (dose: 16.0 mg/kg/injection, schedule: Q04DX003 (ip), vehicle: saline) was 169 % of control.
As to `C=C(NC(=O)C(=C)NC(=O)c1csc(C2=NC3c4csc(n4)C4NC(=O)c5csc(n5)C(C(C)(O)C(C)O)NC(=O)C5CSC(=N5)/C(=C/C)NC(=O)C(C(C)O)NC(=O)c5csc(n5)C3(CC2)NC(=O)C(C)NC(=O)C(=C)NC(=O)C(C)NC(=O)C(C(C)CC)NC2C=Cc3c(C(C)O)cc(nc3C2O)C(=O)OC4C)n1)C(N)=O` (stereo not given), the T/C reads like this: (dose: 50.0 mg/kg/injection, schedule: Q01DX009 (ip), vehicle: Klucel (hydroxypropylcellulose) (HPC)) 106 % of control; (dose: 100.0 mg/kg/injection, schedule: Q01DX009 (ip), vehicle: Klucel (hydroxypropylcellulose) (HPC)) 109 % of control; (dose: 200.0 mg/kg/injection, schedule: Q01DX009 (ip), vehicle: Klucel (hydroxypropylcellulose) (HPC)) 112 % of control.
